The text below walks through data of US8008232B2, “Pyrazolecarboxanilides, process for their preparation and compositions comprising them for controlling harmful fungi” (BASF Aktiengesellschaft, priority 2005, dated 2011).

This assay deals with Botrytis cinerea. Nature of the assay: Activity against gray mold on bell pepper leaves caused by Botrytis cinerea, protective application (also comparative experiment). The format is in vivo. The conditions noted are these: 5 days, untreated 90. As for the experimental part: The active compounds were prepared as a stock solution comprising 25 mg of active compound which was made up to 10 ml using a mixture of acetone and/or dimethyl sulfoxide and the emulsifier Uniperol® EL (wetting agent having an emulsifying and dispersing action based on ethoxylated alkylphenols) in a volume ratio of solvent/emulsifier of 99:1. The mixture was then made up to 100 ml with water. This stock solution was diluted with the solvent/emulsifier/water mixture described to give the desired concentration of active compounds.
Activity Against Gray Mold on Bell Pepper Leaves Caused by Botrytis cinerea, Protective Application
Bell pepper seedlings of the cultivar “Neusiedler Ideal Elite” were, after 2-3 leaves were well developed, sprayed to runoff point with an aqueous suspension having the concentration of active compounds stated below. The next day, the treated plants were inoculated with a spore suspension of Botrytis cinerea which comprised 1.7×10^6 spores/ml in a 2% strength aqueous biomalt solution. The test plants were then placed into a dark climatized chamber at 22-24° C. and high atmospheric humidity. After 5 days, the extent of the fungal infection on the leaves could be determined visually in %.
Comparative Experiment—Activity Against Gray Mold on Bell Pepper Leaves Caused by Botrytis cinerea, Protective Application
Compound No. 47 of Table 1 from EP-A 0 589 301 was compared to compounds 9.17 and 9.20 according to the invention from Table 9.
In the case of `Cc1nn(C)cc1C(=O)Nc1ccccc1-c1ccc(F)cc1F` [9.20], the “Infection in % at 250 ppm at BOTRCI P1” value was 7%.
For `Cc1nn(C)cc1C(=O)Nc1ccccc1-c1ccc(F)cc1` [Comp. 47, reference compound], the “Infection in % at 250 ppm at BOTRCI P1” value stood at 60%.
The same measure for `Cc1nn(C)cc1C(=O)Nc1ccccc1-c1ccc(F)c(Cl)c1` [9.17]: 5%.
